Measurements published in patent publication EP1981504B1, “THIADIAZOLE DERIVATIVES FOR THE TREATMENT OF NEURO DEGENERATIVE DISEASES” (NV reMYND, priority 2006, dated 2007).
In brackets after ≈: the same amount, converted by molar mass.

Test system: M17-SYNwt cells
Assay: α-synuclein cytotoxicity assay (LDH leakage from paraquat-treated α-synuclein over-expressing neuroblastoma cells)
Type: cell-based, human
Conditions: paraquat 32 mM, 40 hours, LDH release; for EC50: Homo sapiens, Neuroblastoma cell, 10 point curves in duplicate; for %I: percent inhibition of synuclein cytotoxicity at most effective concentration of test compound, relative to untreated paraquat cells
Experimental: Subsequently, LDH activity was determined using Promega Cytotox 96 NonRadioactive cytotoxicity assay, (Cat. G1780) according the supplier's instructions.
This corresponds to the following equation: (LDHreleaseoftreatedparaquatcellsatnon-effectiveconcentrationoftestcmpd)−(LDHreleaseoftreatedparaquatcellsatmosteffectiveconcentrationoftestcmpd)/(LDHreleaseofuntreatedparaquatcells)−(LDHreleasecontrolcells)*100% [formula]
1,2,4-thiadazole compounds made according to the methods described herein were screened for activity using the α-synuclein cytotoxicity assay as described above. Dose responses were carried out on all compounds found to be active (10 point curves in duplicate).

Compound | EC50 [µg/mL] | %I [%]
CC1CN(c2nc(Cc3ccc(F)cc3)ns2)CCN1C(=O)Nc1cccc2ccccc12 (centres unmarked) [Compound 25, N-1-naphtyl-4-[3-(4-fluorobenzyl)-1,2,4-thiadiazol-5-yl]-2-methylpiperazine-1-carboxamide] | 1.69 (≈ 3.66 µM) | 97
CC1CN(c2nc(Cc3ccc(F)cc3)ns2)CCN1C(=O)Nc1ccc(F)c(F)c1 (centres unmarked) [Compound 26, N-(3,4-difluorophenyl)-4-[3-(4-fluorobenzyl)-1,2,4-thiadiazol-5-yl]-2-methylpiperazine-1-carboxamide] | – | 70
COc1ccc(NC(=O)N2CCN(c3nc(Cc4ccc(F)cc4)ns3)CC2)c(OC)c1 [Compound 27, N-(2,4-dimethoxyphenyl)-4-[3-(4-fluorobenzyl)-1,2,4-thiadiazol-5-yl]piperazine-1-carboxamide] | – | 67
O=C(Nc1ccc(F)c(F)c1)N1CCN(c2nc(Cc3ccc(F)cc3)ns2)CC1 [Compound 28, N-(3,4-difluorophenyl)-4-[3-(4-fluorobenzyl)-1,2,4-thiadiazol-5-yl]piperazine-1-carboxamide] | – | 64
COc1cc(NC(=O)N2CCN(c3nc(Cc4ccc(F)cc4)ns3)CC2C)cc(OC)c1 (centres unmarked) [Compound 29, N-(3,5-dimethoxyphenyl)-4-[3-(4-fluorobenzyl)-1,2,4-thiadiazol-5-yl]-2-methylpiperazine-1-carboxamide] | – | 51
CC(C)(C)c1ccc(S(=O)(=O)N2CCN(c3nc(Cc4ccc(F)cc4)ns3)CC2)cc1 [Compound 30, 1-[4-tert-butylphenylsulfonyl]-4-[3-(4-fluorobenzyl)-1,2,4-thiadiazol-5-yl]piperazine] | – | 51
COc1ccc(S(=O)(=O)N2CCN(c3nc(Cc4ccc(Cl)cc4)ns3)CC2)cc1 [Compound 31, 1-[4-methoxyphenylsulfonyl]-4-[3-(4-chlorobenzyl)-1,2,4-thiadiazol-5-yl]piperazine] | 0.000169 (≈ 0.000363 µM) | 59
COc1ccc(S(=O)(=O)N2CCN(c3nc(Cc4ccc(F)cc4)ns3)CC2)cc1 [Compound 32, 1-[4-methoxyphenylsulfonyl]-4-[3-(4-fluorobenzyl)-1,2,4-thiadiazol-5-yl]piperazine] | 0.0024 (≈ 0.00535 µM) | 78
O=S(=O)(c1ccc(F)cc1)N1CCN(c2nc(Cc3ccc(Cl)cc3)ns2)CC1 [Compound 33, 1-[4-fluorophenylsulfonyl]-4-[3-(4-chlorobenzyl)-1,2,4-thiadiazol-5-yl]piperazine] | 0.00282 (≈ 0.00622 µM) | 53
Cc1ccc(Cc2nsc(N3CCN(S(=O)(=O)c4ccc(Cl)cc4)C(C)C3)n2)cc1 (centres unmarked) [Compound 34, 1-[4-chlorophenylsulfonyl]-4-[3-(4-methylbenzyl)-1,2,4-thiadiazol-5-yl]-2-methylpiperazine] | 0.0657 (≈ 0.142 µM) | 66
Cc1ccc(Cc2nsc(N3CCN(S(=O)(=O)c4cccc5ccccc45)CC3)n2)cc1 [Compound 35, 1-[1-naphtylsulfonyl]-4-[3-(4-methylbenzyl)-1,2,4-thiadiazol-5-yl]piperazine] | 0.0472 (≈ 0.102 µM) | 47
Cc1ccc(Cc2nsc(N3CCN(S(=O)(=O)c4cc(Cl)ccc4Cl)C(C)C3)n2)cc1 (centres unmarked) [Compound 36, 1-[2,5-dichlorophenylsulfonyl]-4-[3-(4-methylbenzyl)-1,2,4-thiadiazol-5-yl]-2-methylpiperazine] | 0.1 (≈ 0.201 µM) | 52
Cc1ccc(Cc2nsc(N3CCN(S(=O)(=O)c4c(C)cc(C)cc4C)CC3)n2)cc1 [Compound 37, 1-[2,4,6-trimethylphenylsulfonyl]-4-[3-(4-methylbenzyl)-1,2,4-thiadiazol-5-yl]piperazine] | 0.0731 (≈ 0.16 µM) | 48
Cc1ccc(Cc2nsc(N3CCN(S(=O)(=O)c4ccc5ccccc5c4)C(C)C3)n2)cc1 (centres unmarked) [Compound 38, 1-[2-naphtylsulfonyl]-4-[3-(4-methylbenzyl)-1,2,4-thiadiazol-5-yl]-2-methylpiperazine] | 0.13 (≈ 0.272 µM) | 78
O=S(=O)(c1cc(Cl)ccc1Cl)N1CCN(c2nc(Cc3ccc(Cl)cc3)ns2)CC1 [Compound 39, 1-[2,5-dichlorophenylsulfonyl]-4-[3-(4-chlorobenzyl)-1,2,4-thiadiazol-5-yl]piperazine] | 0.16 (≈ 0.318 µM) | 25
Cc1ccc(Cc2nsc(N3CCN(S(=O)(=O)c4cccc5ccccc45)C(C)C3)n2)cc1 (centres unmarked) [Compound 41] | 0.53 (≈ 1.11 µM) | 54
Cc1ccc(Cc2nsc(N3CCN(S(=O)(=O)c4ccc(C(C)(C)C)cc4)C(C)C3)n2)cc1 (centres unmarked) [Compound 42, 1-[4-tert-butylphenylsulfonyl]-4-[3-(4-methylbenzyl)-1,2,4-thiadiazol-5-yl]-2-methylpiperazine] | 0.87 (≈ 1.79 µM) | 33
CC1CN(c2nc(Cc3ccc(Cl)cc3)ns2)CCN1S(=O)(=O)c1cccc2ccccc12 (centres unmarked) [Compound 43, 1-[1-naphtylsulfonyl]-4-[3-(4-chlorobenzyl)-1,2,4-thiadiazol-5-yl]-2-methylpiperazine] | 0.89 (≈ 1.78 µM) | 35
COc1cccc(S(=O)(=O)N2CCN(c3nc(Cc4ccc(F)cc4)ns3)CC2)c1 [Compound 44, 1-[3-methoxyphenylsulfonyl]-4-[3-(4-fluorobenzyl)-1,2,4-thiadiazol-5-yl]piperazine] | 0.0571 (≈ 0.127 µM) | 99
Cc1ccc(Cc2nsc(N3CCN(S(=O)(=O)c4c(C)cc(C)cc4C)C(C)C3)n2)cc1 (centres unmarked) [Compound 45, 1-[2,4,6-trimethylphenylsulfonyl]-4-[3-(4-methylbenzyl)-1,2,4-thiadiazol-5-yl]-2-methylpiperazine] | 1.2 (≈ 2.55 µM) | 56
CC1CN(c2nc(Cc3ccc(F)cc3)ns2)CCN1S(=O)(=O)c1ccccc1 (centres unmarked) [Compound 47, 1-phenylsulfonyl-4-[3-(4-fluorobenzyl)-1,2,4-thiadiazol-5-yl]-2-methylpiperazine] | – | 129
CC(=O)Nc1ccc(S(=O)(=O)N2CCN(c3nc(Cc4ccc(C)cc4)ns3)CC2C)cc1 (centres unmarked) [Compound 48, 1-[4-acetamidophenylsulfonyl]-4-[3-(4-methylbenzyl)-1,2,4-thiadiazof-5-yl]-2-methylpiperazine] | 0.00844 (≈ 0.0174 µM) | 91
CC(=O)Nc1ccc(S(=O)(=O)N2CCN(c3nc(Cc4ccc(C)cc4)ns3)CC2)cc1 [Compound 49, 1-[4-acetamidophenylsulfonyl]-4-[3-(4-methylbenzyl)-1,2,4-thiadiazol-5-yl]piperazine] | 0.000106 (≈ 0.000225 µM) | 77
Cc1ccc(Cc2nsc(N3CCN(S(=O)(=O)c4ccc(C)cc4)C(C)C3)n2)cc1 (centres unmarked) [Compound 50, 1-[4-methylphenylsulfonyl]-4-[3-(4-methylbenzyl)-1,2,4-thiadiazol-5-yl]-2-methylpiperazine] | – | 105
